Measurements taken from patent US20210161997A1, “TREATING DISEASES VIA TARGETED MODULATION OF GENE SIGNALING NETWORKS” (Camp4 Therapeutics Corporation, priority 2018, published 2021).

How the values were obtained:
Format in all cases: cell-based
NOTCH2 = experiment: RNA-seq of NOTCH2 expression in compound-treated primary human hepatocytes; conditions: primary human hepatocytes
Outline: (§1)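 Cryopreserved primary human hepatocytes from three donors, switched to serum-free medium 2 h before compound addition, were harvested about 18 h after treatment. Poly(A) mRNA was sequenced and aligned to GENCODE release 24, with DESeq2 negative binomial differential expression. Fold change is the treated level over the unperturbed level.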

JAG1 = experiment: RNA-seq of JAG1 expression in compound-treated primary human hepatocytes; conditions: for JAG1 Fold Change (Log2): primary human hepatocytes; for Significant modulation of JAG1 (in words): summary of Table 6
Outline: as §1

UGT1A1 = experiment: RNA-seq of UGT1A1 expression in compound-treated primary human hepatocytes
Outline: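 Cryopreserved primary human hepatocytes from three donors were plated in 24-well format, then treated with compound diluted from 1000× stocks in serum-free maintenance medium for about 16–18 h. Poly(A) RNA-seq log2 fold change was computed against vehicle/pan-experiment controls. Significance required FPKM ≥1, log2FC ≥0.5 and q ≤0.05.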

CPOX = experiment: RNA-seq of CPOX expression in compound-treated primary human hepatocytes; conditions: RNA-seq, primary human hepatocytes; significance FPKM ≥0.5, log 2(fold change) ≥0.3, q-value ≤0.05
Procedure: Human hepatocytes were obtained from two donors from Massachusetts General Hospital, namely MGH54 and MGH63, and one donor from Lonza, namely HUM4111B. Cryopreserved hepatocytes were cultured in plating media for 16 hours, transferred to maintenance media for 4 hours. Cultured on serum-free media for 2 hours, then a compound was added. The hepatocytes were maintained on the serum-free media for 16 hours prior to gene expression analysis. Primary human hepatocytes were stored in the vapor phase of a liquid nitrogen freezer (about −130° C.).
Human hepatocytes cultured as described above were plated in 24-well format, adding 375,000 cells per well in a volume of 500 ul plating medium. Four hours before treatment, cells were washed with PBS and the medium was changed to either: fresh maintenance medium (complete) or modified maintenance medium.
Compound stocks were prepared at 1000× final concentration and added in a 2-step dilution to the medium to reduce risk of a compound precipitating out of solution when added to the cells, and to ensure reasonable pipetting volumes. One at a time, each compound was first diluted 10-fold in warm (about 37° C.) modified maintenance medium (initial dilution=ID), mixed by vortexing, and the ID was diluted 100-fold into the cell culture (e.g. 5.1 ul into 1 well of a 24-well plate containing 0.5 mL medium). The plate was mixed by carefully swirling and after all wells were treated and returned to the incubator overnight. If desired, separate plates/wells were treated with vehicle-only controls and/or positive controls. If using multi-well plates, controls were included on each plate. After about 18 hours, cells were harvested for further analysis, e.g., ChIP-seq, RNA-seq, ATAC-seq, etc.
This protocol is a modified version of the following protocols: MagMAX mirVana Total RNA Isolation Kit User Guide (Applied Biosystems #MAN0011131 Rev B.0), NEBNext Poly(A) mRNA Magnetic Isolation Module (E7490), and NEBNext Ultra Directional RNA Library Prep Kit for Illumina (E7420) (New England Biosystems #E74901).
The MagMAX mirVana kit instructions (the section titled “Isolate RNA from cells” on pages 14-17) were used for isolation of total RNA from cells in culture. Two hundred μl of Lysis Binding Mix was used per well of the multiwell plate containing adherent cells (usually a 24-well plate).
For mRNA isolation and library prep, the NEBNext Poly(A) mRNA Magnetic Isolation Module and Directional Prep kit was used. RNA isolated from cells above was quantified, and prepared in […] of each sample in 50 μl of nuclease-free water. This protocol may be run in microfuge tubes or in a 96-well plate.
Standard QC were applied (read integrity, mapping statistics, library complexity, fragment bias) to remove unsatisfactory samples. […] Log 2 fold change and significance values were computed using PME count data (with replicates explicitly modeled versus pan-experiment controls), median ratio normalized, using maximum likelihood estimation rather than maximum a posteriori, and disabling the use of Cook's distance cutoff when determining acceptable adjusted p-values. […] RNA-seq signals were also normalized by read depth and visualized using the UCSC browser.
To identify small molecules that modulate target gene expression, primary human hepatocytes were prepared as a monoculture, and at least one small molecule compound was applied to the cells.
RNA-seq was performed to determine the effects of the compounds on the expression of the target genes in hepatocytes. Fold change was calculated by dividing the level of expression in the cell system that had been perturbed by the level of expression in an unperturbed system. Changes in expression having a p-value ≤0.05 were considered significant.
Significance was defined as an FPKM ≥0.5 a log 2(fold change) ≥0.3, and a q-value of ≤0.05.

SMILES | NOTCH2 Fold Change (Log2) (NOTCH2) | JAG1 Fold Change (Log2) (JAG1) | Significant modulation of JAG1 (in words) (JAG1) | UGT1A1 Fold Change (Log2) (UGT1A1) | CPOX Fold change (Log2) (CPOX)
S=C(NCc1ccc2c(c1)OCO2)N1CCN(c2ncnc3c2oc2ccccc23)CC1 [Amuvatinib] | −0.79 Log2 | 0.74 Log2 | significantly modulate only JAG1 | 0.61 Log2 | –
O=C1CCC(N2C(=O)c3ccccc3C2=O)C(=O)N1 (centres unmarked) [Thalidomide] | −0.68 Log2 | 1.30 Log2 | significantly modulate only JAG1 | – | 0.3 Log2
